Tests used:
[1] = biological target: T1, ALYREF (Mus musculus, UniProt O08583); test: cellular thermal shift assay (also DARTS in lysate); assay type: cell-based; conditions: mouse cardiomyocytes; 40 to 67 °C, 3 min; vs DMSO
T1 construct: full length; endogenous in neonatal mouse cardiomyocytes (wild type); Flag-tagged plasmids transfected into the cardiomyocytes for the deletion mutants

[2] = biological target: T2, ALYREF (Mus musculus, UniProt O08583, DEL171-171); test: as above; assay type: cell-based; conditions: Flag-tagged mutant transfected into mouse cardiomyocytes
T2 construct: full length; endogenous in neonatal mouse cardiomyocytes (wild type); Flag-tagged plasmids transfected into the cardiomyocytes for the deletion mutants

[3] = biological target: T3, ALYREF (Mus musculus, UniProt O08583, DEL113-113); test: as above; assay type: cell-based; conditions: Flag-tagged mutant transfected into mouse cardiomyocytes
T3 construct: full length; endogenous in neonatal mouse cardiomyocytes (wild type); Flag-tagged plasmids transfected into the cardiomyocytes for the deletion mutants

[4] = biological target: ALYREF (purified recombinant, pSMARt‐I‐ALYREF) (Mus musculus, UniProt O08583); test: in vitro droplet (phase separation) assay, microscopy; assay type: biochemical; conditions: 250 mmol/L Tris pH 8.0, 10% PEG-8000, room temperature

COc1cccc2c1C(=O)c1c(O)c3c(c(O)c1C2=O)C[C@@](O)(C(=O)CO)C[C@@H]3O[C@H]1C[C@H](N)[C@H](O)[C@H](C)O1 [doxorubicin]
thermal stability (CESTA) [1]: DOX treatment significantly increased the thermal stability of ALYREF compared with the DMSO control | binding abolished (DARTS, CESTA) [2]: Deletion of D171 abolished the interaction between ALYREF and DOX | binding retained (DARTS, CESTA) [3]: DOX remained capable of binding to the ΔD113 mutant | droplet disruption [4]: also disrupted by DOX, which caused droplet disintegration and structural irregularity

Reference: PMC12631900, “Preservation of ALYREF Phase Separation Mitigates Doxorubicin‐Induced Cardiomyocyte DNA Damage and Cardiotoxicity” (Advanced Science, 2025)
